{"source": "patent US20220235393A1", "about": "“SURROGATE VIRUS ASSAYS AND METHODS” (priority 2019, published 2022)", "origin": "cited, not measured here", "test_system": "ASFV", "data": [{"smiles": "O=C(O)CC(O)(CC(=O)O)C(=O)O", "note": "[citric acid]", "values": [{"measurement": "inactivation of virus applied to wood surfaces", "result": "completely inactivated"}]}]}
